The text below walks through data of patent US20230125212A1, “MEANS AND METHODS FOR ENHANCING CA[…]” (priority 2020, published 2023).

The test system of this experiment is pilocarpine-induced epilepsy. The experiment can be described thus: Rat model of pilocarpine-induced epilepsy, seizure scoring by Racine scale. To be noted: CBD 25 mg/kg IP; cumulative Racine score over 120 min after pilocarpine 350 mg/kg. It counts as in vivo. The protocol:
Objective: The aim of the current study is to assess the effect of a new CBD formulation as seizures protection in the rat model of pilocarpine-induced epilepsy.
Study variables and endpoints: The formulation is administered IP (Intraperitoneally). The animals are assessed for: • a. Mortality & morbidity—Twice daily • b. Body weight monitoring—During acclimation and before Test Item (TI) dosing (Day 1) • c. Clinical signs—Before TI dosing, continuous follow-up during the first two hours following Pilocarpine administration. Monitoring of number and duration of seizures during 120 minutes following pilocarpine administration (Seizures rating according to Racine scale). • d. Study termination—At the end of the seizures' observation (120 minutes after Pilocarpine administration) animals are sedated with Ketamine/Xylazine mixture and are subjected to pericardial perfusion with PBS and PFA 4%, brains will be removed and stored in PFA 4% until histopathological analysis
Administration of the Test Items Each Test Item and vehicle formulation are administered to tested animals, according to Table. […]
Seizure scoring: Following model induction by Pilocarpine injection, the animals are video recorded for 2 hours. The videos are analyzed and seizures rating are recorded according to the following Racine scale below. • a. […]

In the case of `C=C(C)[C@@H]1CCC(C)=C[C@H]1c1c(O)cc(CCCCC)cc1O` [CBD, Cannabidiol], the “AV-Seizure Score” value is recorded as 29.2.
